Data published in paper PMC5068966, “Lysosomal membrane glycoproteins bind cholesterol and contribute to lysosomal cholesterol export” (eLife, 2016).

Legend:
LAMP2 [1] = molecular target: T1, LAMP2 (Homo sapiens, UniProt P13473); test: competition with […] 3H-cholesterol on purified protein; type: binding; design: soluble lumenal domain, human LAMP2 (1–375)
LAMP2 [2] = molecular target: T1, LAMP2; test: direct 3H-25-hydroxycholesterol binding to purified protein; competition with 3H-cholesterol; design: soluble lumenal domain, human LAMP2 (1–375)
LAMP2 [3] = molecular target: T1, LAMP2; test: single-concentration ([…]) competition with 3H-cholesterol on purified protein; type: binding; design: soluble lumenal domain, human LAMP2 (1–375)
AF647 labeled-NPC2 = AF647 labeled-NPC2 (UniProt P61916); test: MST; 6 nM AF647 labelled NPC2, 16 two-fold dilutions of soluble LAMP2 or RNase B; 50 mM MES pH 5.5, 150 mM NaCl, 0.004% NP-40; in 1 µM cholesterol sulfate
AF647 labeled-NPC2, sequence (P61916 20-151): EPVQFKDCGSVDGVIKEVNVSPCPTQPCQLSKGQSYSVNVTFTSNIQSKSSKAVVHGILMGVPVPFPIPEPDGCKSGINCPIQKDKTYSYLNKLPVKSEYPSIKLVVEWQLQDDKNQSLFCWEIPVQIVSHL

[4] = molecular target: AF647 labeled His6-NPC1 N-terminal domain (UniProt O15118); test: MST; 6 nM AF647 labelled protein, 16 two-fold dilutions of soluble LAMP2; 50 mM MES pH 5.5, 150 mM NaCl, 0.004% NP-40; in 1 µM cholesterol; fluorescence read for NPC1 N-terminal domain, thermophoresis for RNase B
AF647 labeled His6-NPC1 N-terminal domain, sequence (O15118 whole entry, the tested form may be a part): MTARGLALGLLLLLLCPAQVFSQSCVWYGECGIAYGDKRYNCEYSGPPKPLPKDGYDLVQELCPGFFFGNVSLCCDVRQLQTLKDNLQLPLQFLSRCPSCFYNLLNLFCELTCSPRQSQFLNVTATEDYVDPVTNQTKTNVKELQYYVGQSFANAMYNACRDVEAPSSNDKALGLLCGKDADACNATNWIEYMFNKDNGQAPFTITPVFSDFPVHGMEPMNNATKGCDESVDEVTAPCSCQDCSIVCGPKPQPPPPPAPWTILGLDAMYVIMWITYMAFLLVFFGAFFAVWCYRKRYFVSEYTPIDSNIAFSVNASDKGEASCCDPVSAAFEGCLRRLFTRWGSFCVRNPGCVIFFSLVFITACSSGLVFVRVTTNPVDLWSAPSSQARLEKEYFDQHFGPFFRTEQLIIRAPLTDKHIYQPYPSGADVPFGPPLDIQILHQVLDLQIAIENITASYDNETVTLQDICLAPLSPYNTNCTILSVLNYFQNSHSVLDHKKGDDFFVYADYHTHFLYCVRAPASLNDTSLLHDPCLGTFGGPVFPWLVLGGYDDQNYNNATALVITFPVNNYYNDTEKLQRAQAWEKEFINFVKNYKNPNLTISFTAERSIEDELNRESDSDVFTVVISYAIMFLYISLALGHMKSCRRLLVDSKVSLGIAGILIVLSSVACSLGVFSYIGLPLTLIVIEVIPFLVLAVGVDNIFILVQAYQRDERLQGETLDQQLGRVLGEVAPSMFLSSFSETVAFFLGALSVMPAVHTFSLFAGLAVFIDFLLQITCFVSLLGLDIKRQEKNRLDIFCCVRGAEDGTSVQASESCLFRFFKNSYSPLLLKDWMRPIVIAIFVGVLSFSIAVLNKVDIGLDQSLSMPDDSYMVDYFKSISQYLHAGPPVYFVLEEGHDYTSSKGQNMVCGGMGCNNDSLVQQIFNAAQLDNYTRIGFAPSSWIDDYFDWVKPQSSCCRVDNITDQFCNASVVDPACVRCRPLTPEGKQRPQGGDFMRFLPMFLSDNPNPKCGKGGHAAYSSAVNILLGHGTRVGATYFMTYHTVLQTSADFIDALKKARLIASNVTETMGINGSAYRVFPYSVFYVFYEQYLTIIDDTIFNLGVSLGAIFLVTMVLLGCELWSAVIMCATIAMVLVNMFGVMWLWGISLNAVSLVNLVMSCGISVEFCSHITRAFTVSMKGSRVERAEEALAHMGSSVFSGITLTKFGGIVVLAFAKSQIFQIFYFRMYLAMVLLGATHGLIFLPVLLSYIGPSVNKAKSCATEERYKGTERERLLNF

LAMP2 [5] = molecular target: T1, LAMP2; test: 3H-cholesterol binding to purified His-tagged protein on Ni-NTA, with cold competition; bound cholesterol also identified by TLC and LC/MS; design: soluble lumenal domain, human LAMP2 (1–375); also domain 1 (1–231) and domain 2
LAMP1 = molecular target: T2, LAMP1 (Homo sapiens, UniProt P11279); test: 3H-cholesterol binding to purified His-tagged protein on Ni-NTA
T2 construct: soluble lumenal domain, human LAMP1(1–382)
T2 sequence (P11279 1-382): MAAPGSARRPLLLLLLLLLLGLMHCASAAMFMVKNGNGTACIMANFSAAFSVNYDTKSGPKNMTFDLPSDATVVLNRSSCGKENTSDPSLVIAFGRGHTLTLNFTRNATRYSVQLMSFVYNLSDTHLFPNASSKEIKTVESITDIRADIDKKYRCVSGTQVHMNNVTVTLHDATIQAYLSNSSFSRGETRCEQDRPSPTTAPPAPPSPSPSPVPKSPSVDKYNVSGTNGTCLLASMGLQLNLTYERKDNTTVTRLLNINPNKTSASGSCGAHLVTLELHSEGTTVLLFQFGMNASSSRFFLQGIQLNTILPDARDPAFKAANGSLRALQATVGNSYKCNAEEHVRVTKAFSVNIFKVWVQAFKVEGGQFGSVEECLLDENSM

T1 sequence (P13473 29-375): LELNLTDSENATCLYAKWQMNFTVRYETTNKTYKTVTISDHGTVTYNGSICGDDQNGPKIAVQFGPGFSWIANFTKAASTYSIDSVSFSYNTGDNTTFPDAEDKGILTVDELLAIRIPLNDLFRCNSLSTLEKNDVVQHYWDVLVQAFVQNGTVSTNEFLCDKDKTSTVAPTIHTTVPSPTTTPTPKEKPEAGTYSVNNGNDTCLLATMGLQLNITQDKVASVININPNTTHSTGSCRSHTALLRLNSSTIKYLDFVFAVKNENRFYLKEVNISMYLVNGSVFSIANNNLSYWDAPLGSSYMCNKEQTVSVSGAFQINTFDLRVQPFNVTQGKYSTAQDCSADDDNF

Molecule: CC(C)CCC[C@@H](C)[C@H]1CC[C@H]2[C@@H]3C(=O)C=C4C[C@@H](O)CC[C@]4(C)[C@H]3CC[C@]12C [7-ketocholesterol]
- competition with 50 nM 3H-cholesterol on purified protein (LAMP2 [1]): 7-ketocholesterol (Figure 2D), but not cholesterol sulfate (Figure 2A), compete with ^3H-cholesterol for binding to LAMP2 protein

Molecule: C[C@H](CCCC(C)(C)O)[C@H]1CC[C@H]2[C@@H]3CC=C4C[C@@H](O)CC[C@]4(C)[C@H]3CC[C@]12C [25-hydroxycholesterol]
- direct 3H-25-hydroxycholesterol binding to purified protein; competition with 3H (LAMP2 [2]): LAMP2 also bound ^3H-25-hydroxycholesterol with similar apparent affinity as cholesterol; binding was competed by excess cold 25-hydroxycholesterol

Molecule: CC(C)C(O)CC[C@@H](C)[C@H]1CC[C@H]2[C@@H]3CC=C4C[C@@H](O)CC[C@]4(C)[C@H]3CC[C@]12C (stereo partly shown) [24-HC, 24-hydroxycholesterol]
- single-concentration (30 μM) competition with 3H-cholesterol on purified protein (LAMP2 [3]): ^3H-cholesterol binding was competed by unlabeled cholesterol, 24-hydroxycholesterol, but not cholesterol sulfate (Figure 1G)

Molecule: full length, soluble human LAMP2 (1-375) (from UniProt P13473 29-375) (domain or fragment)
- Kd (AF647 labeled-NPC2): 0.122 µM
- Kd [4]: 0.006 µM

Molecule: CC(C)CCC[C@@H](C)[C@H]1CC[C@H]2[C@@H]3CC=C4C[C@@H](O)CC[C@]4(C)[C@H]3CC[C@]12C [cholesterol]
- 3H-cholesterol binding to purified His-tagged protein on Ni-NTA, with cold compe (LAMP2 [5]): Soluble, purified, LAMP1 and LAMP2 proteins appeared to bind ^3H-cholesterol saturably
- 3H-cholesterol binding to purified His-tagged protein on Ni-NTA (LAMP1): Soluble, purified, LAMP1 and LAMP2 proteins appeared to bind ^3H-cholesterol saturably
